Laboratory results taken from PubChem BioAssay AID2060511 (Molecular Pharmacology Branch, DTP, NCI, 2025).

Test system: 422866-222-R5-J1-PDC spheroids with HUVEC/MSC, viability
Experiment: Anticancer human tumor 422866-222-R5-J1-PDC patient-derived pancreatic adenocarcinoma cell line growth inhibition [GQUAD]
Conditions: for IC50: curve of first compound; for viability, T/C: stronger effect = lower value
Outline: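 Viability of tumor cells grown as complex spheroids with endothelial and stromal cells, exposed to drug combinations. Top concentration at or near clinical Cmax (else 10 microM), diluted in half-log increments.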

[1] = second compound 0.0316 µM, first compound 0.0316 µM
[2] = second compound 0.0316 µM, first compound 0.316 µM
[3] = second compound 0.1 µM, first compound 0.0316 µM
[4] = second compound 0.1 µM, first compound 0.316 µM
[5] = second compound 0.316 µM, first compound 0.0316 µM
[6] = second compound 0.316 µM, first compound 0.316 µM
[7] = second compound 1 µM, first compound 0.0316 µM
[8] = second compound 1 µM, first compound 0.316 µM
[9] = second compound 3.16 µM, first compound 0.0316 µM
[10] = second compound 3.16 µM, first compound 0.316 µM
[11] = second compound 10 µM, first compound 0.0316 µM
[12] = second compound 10 µM, first compound 0.316 µM
[13] = second compound 0.0316 µM, first compound 0.1 µM
[14] = second compound 0.0316 µM, first compound 1 µM
[15] = second compound 0.0316 µM, first compound 3.16 µM
[16] = second compound 0.0316 µM, first compound 10 µM
[17] = second compound 0.1 µM, first compound 0.1 µM
[18] = second compound 0.1 µM, first compound 1 µM
[19] = second compound 0.1 µM, first compound 3.16 µM
[20] = second compound 0.1 µM, first compound 10 µM
[21] = second compound 0.316 µM, first compound 0.1 µM
[22] = second compound 0.316 µM, first compound 1 µM
[23] = second compound 0.316 µM, first compound 3.16 µM
[24] = second compound 0.316 µM, first compound 10 µM
[25] = second compound 1 µM, first compound 0.1 µM
[26] = second compound 1 µM, first compound 1 µM
[27] = second compound 1 µM, first compound 3.16 µM
[28] = second compound 1 µM, first compound 10 µM
[29] = second compound 3.16 µM, first compound 0.1 µM
[30] = second compound 3.16 µM, first compound 1 µM
[31] = second compound 3.16 µM, first compound 3.16 µM
[32] = second compound 3.16 µM, first compound 10 µM
[33] = second compound 10 µM, first compound 0.1 µM
[34] = second compound 10 µM, first compound 1 µM
[35] = second compound 10 µM, first compound 3.16 µM
[36] = second compound 10 µM, first compound 10 µM
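Further: spheroids exposed to compounds for seven days before reading.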
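Wherever viability, T/C is given: percent viability relative to DMSO vehicle control taken as 100%.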

## CC[C@@]1(O)C(=O)OCc2c1cc1n(c2=O)Cc2cc3c(CN(C)C)c(O)ccc3nc2-1 + CN(C)c1ccc(Nc2c3ccc(NC(=O)CCN4CCCC4)cc3nc3cc(NC(=O)CCN4CCCC4)ccc23)cc1
Second compound 0.0316 µM
  IC50: 0.0939 µM
Second compound 0.1 µM
  IC50: > 0.316 µM
Second compound 0.316 µM
  IC50: 0.0899 µM
Second compound 1 µM
  IC50: 0.135 µM
Second compound 3.16 µM
  IC50: 0.0853 µM
Second compound 10 µM
  IC50: 0.175 µM
Second compound 0.0316 µM, first compound 0.000999 µM
  viability, T/C: 99.1%
Second compound 0.0316 µM, first compound 0.00316 µM
  viability, T/C: 95.8%
Second compound 0.0316 µM, first compound 0.00999 µM
  viability, T/C: 96%
[1]
  viability, T/C: 76%
Second compound 0.0316 µM, first compound 0.0999 µM
  viability, T/C: 47.3%
[2]
  viability, T/C: 49.7%
Second compound 0.1 µM, first compound 0.000999 µM
  viability, T/C: 87.2%
Second compound 0.1 µM, first compound 0.00316 µM
  viability, T/C: 104%
Second compound 0.1 µM, first compound 0.00999 µM
  viability, T/C: 98%
[3]
  viability, T/C: 64.3%
Second compound 0.1 µM, first compound 0.0999 µM
  viability, T/C: 50.9%
[4]
  viability, T/C: 48.7%
Second compound 0.316 µM, first compound 0.000999 µM
  viability, T/C: 90.9%
Second compound 0.316 µM, first compound 0.00316 µM
  viability, T/C: 78.6%
Second compound 0.316 µM, first compound 0.00999 µM
  viability, T/C: 95.2%
[5]
  viability, T/C: 65.1%
Second compound 0.316 µM, first compound 0.0999 µM
  viability, T/C: 48.3%
[6]
  viability, T/C: 48.6%
Second compound 1 µM, first compound 0.000999 µM
  viability, T/C: 96.8%
Second compound 1 µM, first compound 0.00316 µM
  viability, T/C: 92.9%
Second compound 1 µM, first compound 0.00999 µM
  viability, T/C: 78.6%
[7]
  viability, T/C: 69.8%
Second compound 1 µM, first compound 0.0999 µM
  viability, T/C: 56.5%
[8]
  viability, T/C: 35.8%
Second compound 3.16 µM, first compound 0.000999 µM
  viability, T/C: 84.1%
Second compound 3.16 µM, first compound 0.00316 µM
  viability, T/C: 79.2%
Second compound 3.16 µM, first compound 0.00999 µM
  viability, T/C: 87.8%
[9]
  viability, T/C: 72.5%
Second compound 3.16 µM, first compound 0.0999 µM
  viability, T/C: 46.1%
[10]
  viability, T/C: 46.7%
Second compound 10 µM, first compound 0.000999 µM
  viability, T/C: 77.5%
Second compound 10 µM, first compound 0.00316 µM
  viability, T/C: 96.3%
Second compound 10 µM, first compound 0.00999 µM
  viability, T/C: 91.8%
[11]
  viability, T/C: 69.8%
Second compound 10 µM, first compound 0.0999 µM
  viability, T/C: 61.4%
[12]
  viability, T/C: 40.3%

## COc1cc(C2c3cc4c(cc3C(OC3OC5COC(C)OC5C(O)C3O)C3COC(=O)C23)OCO4)cc(OC)c1O (stereo not drawn) + CN(C)c1ccc(Nc2c3ccc(NC(=O)CCN4CCCC4)cc3nc3cc(NC(=O)CCN4CCCC4)ccc23)cc1
Second compound 0.0316 µM
  IC50: 1.89 µM
Second compound 0.1 µM
  IC50: 1.52 µM
Second compound 0.316 µM
  IC50: 3.33 µM
Second compound 1 µM
  IC50: 0.926 µM
Second compound 3.16 µM
  IC50: 3.09 µM
Second compound 10 µM
  IC50: 4.39 µM
[1]
  viability, T/C: 97.3%
[13]
  viability, T/C: 89%
[2]
  viability, T/C: 84.5%
[14]
  viability, T/C: 57.5%
[15]
  viability, T/C: 41.4%
[16]
  viability, T/C: 45.4%
[3]
  viability, T/C: 116%
[17]
  viability, T/C: 86.6%
[4]
  viability, T/C: 70.9%
[18]
  viability, T/C: 54.1%
[19]
  viability, T/C: 40.9%
[20]
  viability, T/C: 38.2%
[5]
  viability, T/C: 101%
[21]
  viability, T/C: 92.9%
[6]
  viability, T/C: 73.8%
[22]
  viability, T/C: 59.2%
[23]
  viability, T/C: 50.7%
[24]
  viability, T/C: 46.3%
[7]
  viability, T/C: 92%
[25]
  viability, T/C: 79.4%
[8]
  viability, T/C: 63.9%
[26]
  viability, T/C: 47.1%
[27]
  viability, T/C: 44.4%
[28]
  viability, T/C: 38.1%
[9]
  viability, T/C: 85.7%
[29]
  viability, T/C: 76.2%
[10]
  viability, T/C: 65.9%
[30]
  viability, T/C: 56.2%
[31]
  viability, T/C: 49.9%
[32]
  viability, T/C: 46%
[11]
  viability, T/C: 73.2%
[33]
  viability, T/C: 80.8%
[12]
  viability, T/C: 67.1%
[34]
  viability, T/C: 63.9%
[35]
  viability, T/C: 55.9%
[36]
  viability, T/C: 38.2%

## COc1cccc2c1C(=O)c1c(O)c3c(c(O)c1C2=O)CC(O)(C(=O)CO)CC3OC1CC(N)C(O)C(C)O1 (stereo not drawn) + CN(C)c1ccc(Nc2c3ccc(NC(=O)CCN4CCCC4)cc3nc3cc(NC(=O)CCN4CCCC4)ccc23)cc1
Second compound 0.0316 µM
  IC50: 0.596 µM
Second compound 0.1 µM
  IC50: 0.613 µM
Second compound 0.316 µM
  IC50: 0.9 µM
Second compound 1 µM
  IC50: 0.76 µM
Second compound 3.16 µM
  IC50: 0.562 µM
Second compound 10 µM
  IC50: 1 µM
[1]
  viability, T/C: 95.2%
[13]
  viability, T/C: 66.8%
[2]
  viability, T/C: 64.3%
[14]
  viability, T/C: 42.9%
[15]
  viability, T/C: 32%
[16]
  viability, T/C: 32.3%
[3]
  viability, T/C: 103%
[17]
  viability, T/C: 73%
[4]
  viability, T/C: 56.8%
[18]
  viability, T/C: 48.8%
[19]
  viability, T/C: 33.9%
[20]
  viability, T/C: 37.9%
[5]
  viability, T/C: 89.5%
[21]
  viability, T/C: 66.3%
[6]
  viability, T/C: 65.7%
[22]
  viability, T/C: 48.3%
[23]
  viability, T/C: 37.8%
[24]
  viability, T/C: 37.5%
[7]
  viability, T/C: 72.2%
[25]
  viability, T/C: 59.5%
[8]
  viability, T/C: 55.5%
[26]
  viability, T/C: 51%
[27]
  viability, T/C: 40.4%
[28]
  viability, T/C: 33%
[9]
  viability, T/C: 74.3%
[29]
  viability, T/C: 68.5%
[10]
  viability, T/C: 56%
[30]
  viability, T/C: 44.8%
[31]
  viability, T/C: 35.1%
[32]
  viability, T/C: 36.5%
[11]
  viability, T/C: 93%
[33]
  viability, T/C: 69.4%
[12]
  viability, T/C: 65.9%
[34]
  viability, T/C: 48.1%
[35]
  viability, T/C: 41.1%
[36]
  viability, T/C: 33%

## O=c1[nH]cc(F)c(=O)[nH]1 + CN(C)c1ccc(Nc2c3ccc(NC(=O)CCN4CCCC4)cc3nc3cc(NC(=O)CCN4CCCC4)ccc23)cc1
Second compound 0.0316 µM
  IC50: > 10 µM
Second compound 0.1 µM
  IC50: > 10 µM
Second compound 0.316 µM
  IC50: > 10 µM
Second compound 1 µM
  IC50: > 10 µM
Second compound 3.16 µM
  IC50: > 10 µM
Second compound 10 µM
  IC50: > 10 µM
[1]
  viability, T/C: 96.8%
[13]
  viability, T/C: 86.5%
[2]
  viability, T/C: 97%
[14]
  viability, T/C: 84.5%
[15]
  viability, T/C: 82.2%
[16]
  viability, T/C: 66.2%
[3]
  viability, T/C: 99.7%
[17]
  viability, T/C: 74.6%
[4]
  viability, T/C: 104%
[18]
  viability, T/C: 75.5%
[19]
  viability, T/C: 71.2%
[20]
  viability, T/C: 72%
[5]
  viability, T/C: 88.6%
[21]
  viability, T/C: 79%
[6]
  viability, T/C: 75.4%
[22]
  viability, T/C: 88.9%
[23]
  viability, T/C: 67.3%
[24]
  viability, T/C: 68.4%
[7]
  viability, T/C: 88.6%
[25]
  viability, T/C: 77%
[8]
  viability, T/C: 86.5%
[26]
  viability, T/C: 79%
[27]
  viability, T/C: 70.8%
[28]
  viability, T/C: 67.9%
[9]
  viability, T/C: 78.8%
[29]
  viability, T/C: 79.4%
[10]
  viability, T/C: 86.2%
[30]
  viability, T/C: 88.1%
[31]
  viability, T/C: 65.9%
[32]
  viability, T/C: 53.6%
[11]
  viability, T/C: 91.3%
[33]
  viability, T/C: 108%
[12]
  viability, T/C: 93.8%
[34]
  viability, T/C: 84%
[35]
  viability, T/C: 75.2%
[36]
  viability, T/C: 76.6%
